In patent US20260250320A1, “LIPIDATED PEPTIDE INHIBITORS OF INTERLEUKIN-23 RECEPTOR” (Janssen Pharmaceutica NV, priority 2023, published 2026):
*1 amine or outer side, *2 acyl side, *3 side chain or, on linkers, in order; H or OH if unused. Where a SMILES comes first, the peptide text is derived from it. Bridges are numbered along the chain shown (N, C = ends). Side-chain parts run from the residue outwards. [ ]: non-standard residue; d: D form. The star is where a group is joined. Me3N+CH2CH2(OCH2CH2)4CO = C[N+](C)(C)CCOCCOCCOCCOCCC(=O)*; PEG12 = NCCOCCOCCOCCOCCOCCOCCOCCOCCOCCOCCOCCOCCC(=O)O; NH(CH2CH2O)2CH2CH2NMe3+ = C[N+](C)(C)CCOCCOCCN*; Trp(7-Me) = Cc1cccc2c(C[C@H](N)C(=O)O)c[nH]c12; C18 diacid = O=C(O)CCCCCCCCCCCCCCCCC(=O)*; X6 = CN(CC[C@H](N[*:1])C(=O)[*:2])[*:3]; γGlu = O=C(O)[C@H](CCC(=O)[*:2])N[*:1]; 2Nal = N[C@@H](Cc1ccc2ccccc2c1)C(=O)O; AEF = NCCOc1ccc(C[C@H](N)C(=O)O)cc1; 3Pal = N[C@@H](Cc1cccnc1)C(=O)O; NMeK = CN[C@@H](CCCCN)C(=O)O; Pen = CC(C)(S)[C@H](N)C(=O)O; Thp = NC1(C(=O)O)CCOCC1; AEEA = NCCOCCOCC(=O)O; Sar = CNCC(=O)O

Test system: IL-23-stimulated phosphorylated STAT3 in peripheral blood mononuclear cells (PBMCs)
Experiment: PBMC pSTAT3 Assay
Format: cell-based
Details: PBMCs from healthy donors; 30 min preincubation with peptide; IL-23 5 ng/mL for 30 min; phospho-STAT3 by MSD
Experimental: Cryopreserved peripheral blood mononuclear cells (PBMCs) from healthy donors were thawed and washed twice in ImmunoCult-XF T cell expansion medium (XF-TCEM) supplemented with CTL anti-aggregate wash. The cells were counted, resuspended at 2-6×10^5 cells per mL XF-TCEM supplemented with penicillin/streptomycin and 100 ng/mL […] (BioLegend, 579404), and cultured in tissue culture flasks coated with anti-CD3 (eBioscience, 16-0037-85 or BD Pharmingen, 555329) at 37° C. in 5% CO2. On day 4 of culture, PBMCs were collected, washed twice in RPMI-1640 supplemented with 0.1% BSA (RPMI-BSA), and incubated in RPMI-BSA in upright tissue culture flasks for ~4 hours at 37° C. in 5% CO2. Following this 'starvation,' a total of 6×10^4 cells in 30 μL RPMI-BSA was transferred into each well of a 384-well plate pre-spotted with peptide or DMSO. The cells were incubated for 30 minutes prior to the addition of […] at a final concentration of 5 ng/mL. The cells were stimulated with cytokine for 30 minutes at 37° C. in 5% CO2, transferred onto ice for 10 minutes, and lysed. Cell lysates were stored at -80° C. until phosphorylated STAT3 was measured using the phospho-STAT panel kit (Meso Scale Discovery, […]). Results are provided below. • A: IC50<0.5 nM; • B: 0.5 nM≤IC50<5 nM; • C: 5 nM≤IC50; • ND: Not determined

| Compound | IC50 |
| --- | --- |
| Cc1cccc2c(C[C@@H]3NC(=O)[C@H]([C@@H](C)O)NC(=O)[C@H](CC(=O)N(C)C)NC(=O)[C@@H](NC(=O)CCOCCOCCOCCOCC[N+](C)(C)C)C(C)(C)SSC(C)(C)[C@@H](C(=O)N[C@@H](Cc4ccc(OCCN)cc4)C(=O)N[C@@H](Cc4ccc5ccccc5c4)C(=O)NC4(C(=O)N[C@@H](CCC(=O)O)C(=O)N[C@@H](CC(N)=O)C(=O)N[C@@H](Cc5cccnc5)C(=O)N(C)[C@@H](CCCCNC(=O)CCOCCOCCOCCOCCOCCOCCOCCOCCOCCOCCOCCOCCNC(=O)CC[C@H](NC(=O)CCCCCCCCCCCCCCCCC(=O)O)C(=O)O)C(N)=O)CCOCC4)NC(=O)[C@H](CCN(C)C(=O)CCOCCOCCOCCOCC[N+](C)(C)C)NC3=O)c[nH]c12 [compound 111, cPEG5aCO-Pen(3)-N(N(Me)2)-T-7MeW-Dab(NMecPEG5a)-Pen(3)-AEF-2Nal-THP-E-N-3Pya-NMeK(PEG12gEC18OH)-CONH2] ({Me3N+CH2CH2(OCH2CH2)4CO}-[Pen]D(NMe2)T[Trp(7-Me)][X6](Me3N+CH2CH2(OCH2CH2)4CO)[Pen][AEF][2Nal][Thp]EN[3Pal][NMeK]([PEG12-γGlu-C18 diacid])-NH2; disulfide 1-6) | < 0.5 nM |
| CC(=O)NCCCC[C@@H]1NC(=O)[C@H](Cc2c[nH]c3c(C)cccc23)NC(=O)[C@H]([C@@H](C)O)NC(=O)[C@H](CC(N)=O)NC(=O)[C@@H](NC(=O)[C@@H](CCCNC(=N)N)NC(C)=O)C(C)(C)SSC(C)(C)[C@@H](C(=O)N[C@@H](Cc2ccc(OCCN)cc2)C(=O)N[C@@H](Cc2ccc3ccccc3c2)C(=O)NC2(C(=O)N[C@@H](CCC(=O)O)C(=O)N[C@@H](CC(N)=O)C(=O)N[C@@H](Cc3cccnc3)C(=O)N(C)CC(=O)N[C@@H](CCCCNC(=O)COCCOCCNC(=O)COCCOCCNC(=O)CC[C@H](NC(=O)CCCCCCCCCCCCCCCCC(=O)O)C(=O)O)C(=O)NCCOCCOCC[N+](C)(C)C)CCOCC2)NC1=O [compound 40, MeCO-r-Pen(3)-N-T-7MeW-K(Ac)-Pen(3)-AEF-2Nal-THP-E-N-3Pya-Sar-K(PEG2PEG2gEC18OH)-CONH(PEG3a)] (Ac-[dR][Pen]NT[Trp(7-Me)]K(Ac)[Pen][AEF][2Nal][Thp]EN[3Pal][Sar]K([AEEA-AEEA-γGlu-C18 diacid])-{NH(CH2CH2O)2CH2CH2NMe3+}; disulfide 2-7) | 0.5 to 5 nM |
